Source: patent US20150335055A1, “BEVERAGE PR[…] BASED ON PIMARICIN AND HEADSPACE GAS” (PEPSICO, INC., priority 2013, published 2015)

How the values were obtained:
[1] = Loss of pimaricin over time in water as a function of O2 content and complex with β-cyclodextrin (Background Example 3); format: physicochemical
Description: (§1) Such reactions are a consequence of the formation of reactive oxygen species (ROS) wherein oxygen merely serves as an intermediate in the transfer of electrons in REDOX type reactions which ultimately result in the degradation of more complex molecules such as pimaricin. In this regard, O2 behaves similar to a catalyst. Similar to many reactions involving catalyst, the amount of oxygen required to drive in such reactions is very small. In this regard, it is of interest to evaluate the stability of pimaricin in solution under differing conditions of oxygen tension. Clearly, it is also of interest to establish whether the formation of a complex between pimaricin and β-cyclodextrin serves to stabilize pimaricin from degradation by reaction with oxygen. […] Briefly, pimaricin yields a very distinctive UV-visible spectrum with 3 separate absorption maxima. As pimaricin degrades, the peak heights diminish. Degradation can be tracked through the diminishing peak height of any single peak maxima or through changes in relative peak height.
Given a method to monitor the changes in concentration of pimaricin, it is then possible to establish whether pimaricin degrades differently as a function of variables such as initial oxygen tension of solution. Background Example 3, FIG. 3 captures results for the degradation of pimaricin over a time period of several months as a function of initial oxygen tension and the presence or absence of a complex between pimaricin and β (beta) cyclodextrin.
The initial concentration of pimaricin in complex ≧400 ppm and so pimaricin is fully bound to β-cyclodextrin. Measurements in distilled water at neutral pH and 25° C. Thus, regardless of the presence or absence of a complex with cyclodextrin, pimaricin is subject to degradation over time when in solution.

spoilage organisms = assay: Degradation kinetic of pimaricin and onset of spoilage in carbonated beverage (Background Example 4); format: cell-based
Description: In the absence of analytical data about the stability of pimaricin in solution, the interpretation of the data about the stability of product over time can be interpreted in one of two ways. Either no degradation of pimaricin occurred and product spoiled because of the outgrowth of those few organisms that were tolerant to the quantity of pimaricin present or spoilage occurred as a consequence of the survival and then outgrowth of organisms as a consequence of the degradation of pimaricin below some critical concentration. A strong argument for the latter is offered in Background Example 4, FIG. 4. Herein, the degradation of pimaricin is tracked from initial concentrations of 13 and 25 ppm in parallel with previously established incidence of spoilage in samples that initially contain 13 and 25 ppm. […] Product contains in excess of 2000 ppb O2.
In the presence of structurally intact pimaricin, spoilage organisms are inhibited from growth. Once the integrity of the bulk pimaricin is compromised, the organisms are able to grow. Regardless of initial concentration, pimaricin in 3.7 volume CO2 beverage will degrade at the same rate. Commonly, carbonated beverages contain a substantial amount of oxygen (>3500 ppb). Given a starting concentration of 13.5 ppm, the degradation of pimaricin is such that the concentration of pimaricin falls to below the minimum inhibitory concentration ( . . . ) at around 80 days. At this time, spoilage organisms begin to grow and induce spoilage (χ).

[2] = Solubility of pimaricin in aqueous solution; format: physicochemical
[3] = system: yeast which can spoil carbonated beverage; details: types of yeast which can spoil carbonated beverage; cited from earlier work
[4] = Degradation kinetics of pimaricin in beverage without β-cyclodextrin, UV-visible peak ratio (Background Example 2); format: physicochemical; details: beverage pH 3.4; no β-cyclodextrin
Description: as §1
Freshly prepared samples of pimaricin in water yield a spectrogram of 3 peak 1 (320 nm) peak 2 (304 nm) and peak 3 (291 nm). […] These differences are a reflection of the conjugated diene structure of pimaricin. As the integrity of the conjugate structure gives way to degradation, the relative peak heights are subject to change. […]

Substance: (IR,3S,5R,7R,8E,12R,14E,16E,18E,20E,22R,24S,25R,26S)-{[3S,4S,5S,6R)-4-amino-3,5-dihydroxy-6-methyloxan-2-yl]oxy}-1,3,26 trihydroxy-12-methyl-10-oxo-6,11,28-trioxatricyclo[22.3.1.0^5,7]octacosa-8,14,16,18,20 pentaene-25-carboxylic acid [pimaricin]
- effect of lowering oxygen concentration on rate of degradation ([1]; not complexed, oxygen lowered to 3500 ppb): does not measurably impact the rate of degradation
- degradation over time ([1]; not complexed, water containing oxygen in excess of 8500 ppb): degrades quite quickly
- rate of degradation versus water containing 8300 ppm O2 ([1]; pimaricin alone in water containing only, neutral pH, 25° C.): about the same rate
- rate of degradation versus pimaricin complex β-cyclodextrin ([1]; water containing 8300 ppb O2, distilled water, neutral pH, 25° C.): slightly faster rate
- critical concentration of pimaricin (no spoilage above it) (spoilage organisms; 3.7 volume CO2 beverage): about 2 ppm
- incubation time before spoilage (spoilage organisms; initial concentration 13 ppm pimaricin, carbonated beverage 3.6 volumes CO2): > 80 days
- incidence of spoilage (spoilage organisms; initial concentration 13 ppm pimaricin, carbonated beverage 3.6 volumes CO2, in excess of 2000 ppb O2): 33%
- pimaricin concentration below which spoilage ensues (spoilage organisms; intersect of time of onset of spoilage and degradation plot for 13 ppm pimaricin): 1.5-2 ppm
- spoilage among samples evaluated (spoilage organisms; product containing 25 ppm pimaricin, carbonated beverage 3.6 volumes CO2): did not suffer any spoilage
- time at which pimaricin concentration falls below the minimum inhibitory concentration (spoilage organisms; starting concentration 13.5 ppm, 3.7 volume CO2 beverage): around 80 days
- spoilage from outgrowth of previously inoculated organisms (spoilage organisms; starting concentration 25 ppm pimaricin, 3.7 volume CO2 beverage): no ensuing spoilage
- normal limit of solubility ([2]; beverage of acid pH, 25° C.): 20-25 ppm
- limit of solubility ([2]; high acid beverage): 25 ppm
- limit of solubility in aqueous solution ([2]; in the absence of β-cyclodextrin): 20-25 mg 1^−1
- reported MIC values [3]: ≥ 10 ppm
- degradation in aqueous suspension [4]: degrades relatively quickly
